Key:
[1] = Displacement of [3H](S)-2-(tert-butoxy)-2-(2-methyl-4-(p-tolyl)quinolin-3-yl)acetic acid from LEDGF-binding site of recombinant T124/T125 polymorphic HIV1 integrase by LIDIA assay; design: species or system Human immunodeficiency virus 1
[2] = tested on: Human immunodeficiency virus 1; experiment: Antiviral activity against recombinant HIV1 NLRep-Rluc harbouring polymorphic NT infected in human MT-2 cells assessed as inhibition of virus growth in presence of fetal bovine serum by measuring luciferase activity after 5 days; assay type: functional, organism-based; conditions: Human immunodeficiency virus 1, NLRep, MT2, 120 h
[3] = Toxicity in rat assessed as histological changes in lymph node at 500 mg/kg/day; assay type: organism-based; conditions: in vivo

Cc1nc(C)c([C@H](OC(C)(C)C)C(=O)O)c(N2CCC(C)(C)CC2)c1-c1ccc(OCCc2ccc(F)cc2)cc1
IC50 [1]: 11.1 nM | EC50 [2]: 3.5 nM | Activity [3]: Toxic

Source: ChEMBL document CHEMBL5046290, “Design, Synthesis, and Preclinical Profiling of GSK3739936 (BMS-986180), an Allosteric Inhibitor of HIV-1 Integrase with Broad-Spectrum Activity toward 124/125 Polymorphs” (J Med Chem, 2022)
